Series [1] has as its target 15-PGDH/HPGD (Homo sapiens (Human), UniProt P15428). In words: hPGDH inhibitor screening biochemical assay. The settings on record: read-out: hPGDH: Average IC50. The essentials:
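Ten-point dose-response inhibition of 15-PGDH measured by fluorescence (340/485 nm) after 10 min at room temperature with PGE2 (15 μM) and NAD+ (0.25 mM), following 10 min enzyme (10 nM)–compound pre-incubation at 37 °C. Buffer: 50 mM Tris-HCl pH 7.5, 0.01% Tween 20. Percent inhibition relative to 1% DMSO; four-parameter IC50.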

Series [2] can be described thus: Liver microsome stability assay (RLM). It counts as in vitro ADME. The settings on record: rat liver microsomes. The protocol:
(§1) A microsomal mixture (microsomes and Kphos buffer) was prepared at a concentration of 1.428 mg/mL in 2 mL tubes. To this microsomal mixture 1.6 μL (1 mM) of test compound and positive control were spiked; from this mixture, 70 μL was transferred to 96 well plate and pre-incubated at 37° C. for 5 min. After pre-incubation, the zero minute time point reaction was stopped using 100 μL of ice-cold acetonitrile containing internal standard and […] (3.33 mM in Kphos buffer) was added. The 45 minute time point reaction was initiated by addition of 30 μL of NADPH (3.33 mM in Kphos buffer) and incubated at 37° C. for 15 and 45 min. Reactions without NADPH and buffer controls (minus NADPH) at 0, 15, and 45 minutes were also incubated to rule out non-NADPH metabolism or chemical instability in the incubation buffer. Incubation reactions were stopped with 100 μL of ice-cold acetonitrile containing internal standard. The plates were centrifuged at 4000 RPM for 15 min and 100 μL aliquots were submitted for analysis by LC-MS/MS. (Verapamil in human liver microsomes (HLM) and rat liver microsomes (RLM) was used as positive controls. Imipramine in mouse liver microsomes (MLM) was used as a positive control.) Samples were monitored for parent compound disappearance in MRM mode (multiple reaction monitoring) using LC-MS/MS. The peak area ratios of analyte versus internal standard were used to calculate the % remaining at the end of 45 minutes in the presence of NADPH.

Series [3] in a line: Liver microsome stability assay (MLM). The series is classed as in vitro ADME. The note with it: mouse liver microsomes. The method, then:
as §1
(Microsomes from liver hold many membrane-bound enzymes, among them those of drug oxidation.)

Sequence of 15-PGDH/HPGD (P15428 whole entry): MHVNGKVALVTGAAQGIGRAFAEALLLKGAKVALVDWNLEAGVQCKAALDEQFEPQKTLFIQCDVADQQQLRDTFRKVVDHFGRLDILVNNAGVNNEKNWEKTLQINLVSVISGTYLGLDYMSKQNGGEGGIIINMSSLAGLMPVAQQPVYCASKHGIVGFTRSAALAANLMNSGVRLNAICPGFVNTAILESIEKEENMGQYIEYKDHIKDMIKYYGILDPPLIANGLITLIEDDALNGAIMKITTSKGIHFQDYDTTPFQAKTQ

What is called IC50 is the concentration that inhibits the measured activity by half. As to `COc1ccc(-n2c(C)nc3cc(C(=O)N4CCC(F)CC4)ccc32)cc1` [MF-DH-187], the concentration for half-maximal inhibition (IC50) in series [1] was below 100 nM. Besides, the “RLM + NADPH (% remaining at 45 min)” value in series [2] is given as 17%.

For `COc1ccc(-n2ccc3cc(C(=O)N4CCC(F)CC4)ccc32)cc1` [MF-DH-189], the IC50 in series [1] was below 100 nM. For the same compound, the “RLM + NADPH (% remaining at 45 min)” value in series [2] was determined as 23%.

Consider `COc1ccc(-n2cc(C)c3cc(C(=O)N4CCC(F)CC4)ccc32)cc1` [MF-DH-190, (4-fluoropiperidin-1-yl)(1-(4-methoxyphenyl)-3-methyl-1H-indol-5-yl)methanone], for which the 50% inhibitory concentration (IC50) in series [1] is below 100 nM. Besides, the “RLM + NADPH (% remaining at 45 min)” value in series [2] is reported as 29%.

As for `CCc1nc2cc(C(=O)N3CCC(F)CC3)ccc2n1-c1ccc(OC)cc1` [MF-DH-193], the half-maximal inhibitory concentration (IC50) in series [1] was below 100 nM. For the same compound, the “RLM + NADPH (% remaining at 45 min)” value in series [2] worked out at 0%.

In the case of `CCC(CC)n1cnc2cc(C(=O)N3CCC(F)CC3)cnc21` [MF-DH-201], the half-maximal inhibitory concentration (IC50) in series [1] was at least 1000 nM. Also, in series [2], the “RLM + NADPH (% remaining at 45 min)” value is reported as 48%.

On to `COc1ccc(-n2c(C)nc3cc(C(=O)N4CCCCC4)cnc32)cc1` [MF-DH-205], for which the 50% inhibitory concentration (IC50) in series [1] is below 100 nM. The “RLM + NADPH (% remaining at 45 min)” value in series [2] turned out to be 78%.

In the case of `COc1ccc(-n2c(C)nc3cc(C(=O)N4CCCCC4)ccc32)cc1` [MF-DH-206], in series [1], the IC50 is below 100 nM. Moreover, the “RLM + NADPH (% remaining at 45 min)” value in series [2] worked out at 9%.

Take `O=C(c1cnc2c(c1)ncn2-c1ccc(F)cc1)N1CCC(F)CC1` [MF-DH-214]: the half-inhibitory concentration (IC50) in series [1] was 100 to 1000 nM. Moreover, the “RLM + NADPH (% remaining at 45 min)” value in series [2] came to 60%.

As for `O=C(c1cnc2c(c1)ncn2-c1ccc(F)cc1)N1CCCCC1` [MF-DH-215], the 50% inhibitory concentration (IC50) in series [1] is below 100 nM. Moreover, the “RLM + NADPH (% remaining at 45 min)” value in series [2] is given as 45%.

In the case of `O=C(c1cnc2c(c1)ncn2-c1ccc(F)c(F)c1)N1CCC(F)CC1` [MF-DH-216], the half-maximal inhibitory concentration (IC50) in series [1] lay in the range of 100 to 1000 nM. The “RLM + NADPH (% remaining at 45 min)” value in series [2] was 64%.

Take `O=C(c1cnc2c(c1)ncn2-c1ccc(F)c(F)c1)N1CCCCC1` [MF-DH-217]: the half-inhibitory concentration (IC50) in series [1] was below 100 nM. For the same compound, in series [2], the “RLM + NADPH (% remaining at 45 min)” value is reported as 34%.

Take `O=C(c1cnc2c(c1)ncn2-c1ccc(OC(F)(F)F)cc1)N1CCC(F)CC1` [MF-DH-218]: in series [1], the 50% inhibitory concentration (IC50) fell in the range of 100 to 1000 nM. Also, the “RLM + NADPH (% remaining at 45 min)” value in series [2] was 34%.

Consider `O=C(c1cnc2c(c1)ncn2-c1ccc(OC(F)(F)F)cc1)N1CCCCC1` [MF-DH-219], for which, in series [1], the 50% inhibitory concentration (IC50) is below 100 nM. Moreover, the “RLM + NADPH (% remaining at 45 min)” value in series [2] was 26%.

Regarding `O=C(c1cnc2c(c1)ncn2-c1ccc(OC(F)F)cc1)N1CCCCC1` [MF-DH-223], the 50% inhibitory concentration (IC50) in series [1] is below 100 nM. Besides, the “RLM + NADPH (% remaining at 45 min)” value in series [2] is reported as 74%.

Consider `CCOc1ccc(-n2cnc3cc(C(=O)N4CCCCC4)cnc32)cc1` [MF-DH-225], for which the IC50 in series [1] is below 100 nM. Further, the “RLM + NADPH (% remaining at 45 min)” value in series [2] stood at 40%.

Regarding `O=C(c1cnc2c(c1)ncn2-c1cccc(OC(F)(F)F)c1)N1CCCCC1` [MF-DH-227], the IC50 in series [1] was 100 to 1000 nM. Further, in series [2], the “RLM + NADPH (% remaining at 45 min)” value stood at 48%.

Consider `O=C(c1cnc2c(c1)ncn2-c1cccc(OC(F)F)c1)N1CCC(F)CC1` [MF-DH-228], for which the half-maximal inhibitory concentration (IC50) in series [1] was 100 to 1000 nM. Further, in series [2], the “RLM + NADPH (% remaining at 45 min)” value was determined as 69%.

Take `O=C(c1cnc2c(c1)ncn2-c1cccc(OC(F)F)c1)N1CCCCC1` [MF-DH-229]: in series [1], the half-maximal inhibitory concentration (IC50) fell in the range of 100 to 1000 nM. For the same compound, the “RLM + NADPH (% remaining at 45 min)” value in series [2] came out at 39%.

On to `CCC(CC)n1cnc2cc(C(=O)N3CCCCC3)ccc21` [MF-DH-237], for which, in series [1], the IC50 was below 100 nM. Besides, the “RLM + NADPH (% remaining at 45 min)” value in series [2] was 0%.

As for `COc1ccc(-n2nnc3cc(C(=O)N4CCC(F)CC4)ccc32)cc1` [MF-DH-242, (4-fluoropiperidin-1-yl)(1-(4-methoxyphenyl)-1H-benzo[d][1,2,3]triazol-5-yl)methanone], the IC50 in series [1] was below 100 nM. In addition, in series [2], the “RLM + NADPH (% remaining at 45 min)” value is 51%.

Take `COc1ccc(-n2nnc3cc(C(=O)N4CCCCC4)ccc32)cc1` [MF-DH-243, (1-(4-methoxyphenyl)-1H-benzo[d][1,2,3]triazol-5-yl)(piperidin-1-yl)methanone]: in series [1], the 50% inhibitory concentration (IC50) is below 100 nM. Moreover, in series [2], the “RLM + NADPH (% remaining at 45 min)” value is 34%.

On to `COc1ccc(-n2ncc3cc(C(=O)N4CCCCC4)ccc32)cc1` [MF-DH-245], for which, in series [1], the IC50 was below 100 nM. The “RLM + NADPH (% remaining at 45 min)” value in series [2] is 16%.

Take `COc1ccc(-n2nc(Cl)c3cc(C(=O)N4CCC(F)CC4)ccc32)cc1` [MF-DH-246]: in series [1], the 50% inhibitory concentration (IC50) is 100 to 1000 nM. Besides, the “RLM + NADPH (% remaining at 45 min)” value in series [2] was found to be 46%.

As to `O=C(Nc1ccn(C2CC2)n1)c1cncc(-n2ccc3cc(C(=O)N4CCC(F)(F)CC4)cnc32)c1` [MF-DH-500, N-(1-cyclopropyl-1H-pyrazol-3-yl)-5-(5-(4,4-difluoropiperidine-1-carbonyl)-1H-pyrrolo[2,3-b]pyridin-1-yl)nicotinamide], in series [1], the IC50 is below 100 nM. Also, the “MLM + NADPH (% remaining at 45 min)” value in series [3] is on record as 60%.

For `O=C(O)c1cccc(-n2ccc3cc(C(=O)N4CCC(F)(F)CC4)cnc32)c1` [MF-DH-507, 3-(5-(4,4-difluoropiperidine-1-carbonyl)-1H-pyrrolo[2,3-b]pyridin-1-yl)benzoic acid], the IC50 in series [1] was below 100 nM. In addition, the “MLM + NADPH (% remaining at 45 min)” value in series [3] stood at 97%.

As to `O=C(c1cnc2c(ccn2-c2ccc(-c3nn[nH]n3)cc2)c1)N1CCC(F)(F)CC1` [MF-DH-514, (1-(4-(2H-tetrazol-5-yl)phenyl)-1H-pyrrolo[2,3-b]pyridin-5-yl)(4,4-difluoropiperidin-1-yl)methanone], in series [1], the IC50 is below 100 nM. Also, the “MLM + NADPH (% remaining at 45 min)” value in series [3] is 110%.

Consider `O=C(c1cnc2c(ccn2-c2cccc(-c3nn[nH]n3)c2)c1)N1CCC(F)(F)CC1` [MF-DH-515, (1-(3-(2H-tetrazol-5-yl)phenyl)-1H-pyrrolo[2,3-b]pyridin-5-yl)(4,4-difluoropiperidin-1-yl)methanone], for which the IC50 in series [1] is below 100 nM. Besides, the “MLM + NADPH (% remaining at 45 min)” value in series [3] stood at 103%.

For the compound `O=C(c1cnc2c(ccn2-c2cncc(-c3nc[nH]n3)c2)c1)N1CCC(F)(F)CC1` [MF-DH-516, (1-(5-(1H-1,2,4-triazol-3-yl)pyridin-3-yl)-1H-pyrrolo[2,3-b]pyridin-5-yl)(4,4-difluoropiperidin-1-yl)methanone], the IC50 in series [1] is below 100 nM. Also, the “MLM + NADPH (% remaining at 45 min)” value in series [3] was 88%.

In the case of `O=C(c1cnc2c(ccn2-c2cncc(-c3n[nH]c(C4CC4)n3)c2)c1)N1CCC(F)(F)CC1` [MF-DH-517, (1-(5-(5-cyclopropyl-1H-1,2,4-triazol-3-yl)pyridin-3-yl)-1H-pyrrolo[2,3-b]pyridin-5-yl)(4,4-difluoropiperidin-1-yl)methanone], in series [1], the IC50 is below 100 nM. In series [3], the “MLM + NADPH (% remaining at 45 min)” value is 47%.

In the case of `O=C(c1cnc2c(ccn2-c2ccc(-c3n[nH]c(C4CC4)n3)nc2)c1)N1CCC(F)(F)CC1` [MF-DH-518, (1-(6-(5-cyclopropyl-1H-1,2,4-triazol-3-yl)pyridin-3-yl)-1H-pyrrolo[2,3-b]pyridin-5-yl)(4,4-difluoropiperidin-1-yl)methanone], the concentration for half-maximal inhibition (IC50) in series [1] is below 100 nM. Moreover, the “MLM + NADPH (% remaining at 45 min)” value in series [3] was found to be 92%.

Take `O=C(c1cnc2c(ccn2-c2ccc(-c3nnc(C(F)(F)F)[nH]3)nc2)c1)N1CCC(F)(F)CC1` [MF-DH-519, (4,4-difluoropiperidin-1-yl)(1-(6-(5-(trifluoromethyl)-4H-1,2,4-triazol-3-yl)pyridin-3-yl)-1H-pyrrolo[2,3-b]pyridin-5-yl)methanone]: in series [1], the IC50 was below 100 nM. For the same compound, the “MLM + NADPH (% remaining at 45 min)” value in series [3] turned out to be 89%.

Take `CC(C)(C)c1ccc(NC(=O)c2cncc(-n3ccc4cc(C(=O)N5CCC(F)(F)CC5)cnc43)c2)cn1` [MF-DH-520, N-(6-(tert-butyl)pyridin-3-yl)-5-(5-(4,4-difluoropiperidine-1-carbonyl)-1H-pyrrolo[2,3-b]pyridin-1-yl)nicotinamide]: in series [1], the 50% inhibitory concentration (IC50) is below 100 nM. Besides, the “MLM + NADPH (% remaining at 45 min)” value in series [3] is recorded as 38%.

With `CC(C)(O)CNC(=O)c1cc(Cl)cc(-n2ccc3cc(C(=O)N4CCC(F)(F)CC4)cnc32)c1` [MF-DH-521], the concentration for half-maximal inhibition (IC50) in series [1] was below 100 nM. The “MLM + NADPH (% remaining at 45 min)” value in series [3] is 84%.

Turning to `CC(C)(O)CCc1cc2cc(C(=O)N3CCC(F)(F)CC3)cnc2n1-c1ccc(C(=O)O)cc1` [MF-DH-538, 4-(5-(4,4-difluoropiperidine-1-carbonyl)-2-(3-hydroxy-3-methylbutyl)-1H-pyrrolo[2,3-b]pyridin-1-yl)benzoic acid], in series [1], the 50% inhibitory concentration (IC50) was below 100 nM. For the same compound, the “MLM + NADPH (% remaining at 45 min)” value in series [3] was found to be 91%.

Take `Cc1nc(-c2ccc(-n3c(CCC(C)(C)O)cc4cc(C(=O)N5CCC(F)(F)CC5)cnc43)cc2)no1` [MF-DH-542, (4,4-difluoropiperidin-1-yl)(2-(3-hydroxy-3-methylbutyl)-1-(4-(5-methyl-1,2,4-oxadiazol-3-yl)phenyl)-1H-pyrrolo[2,3-b]pyridin-5-yl)methanone]: the half-maximal inhibitory concentration (IC50) in series [1] is below 100 nM. The “MLM + NADPH (% remaining at 45 min)” value in series [3] came to 68%.
